Results on one compound are retold here after BindingDB's records for doi:10.1021/jm801475n (University of Dundee, 2009).

The assay addresses T1, 2-C-methyl-D-erythritol 2,4-cyclodiphosphate synthase (Escherichia coli (strain K12), UniProt P62617).
T1 sequence (P62617 whole entry): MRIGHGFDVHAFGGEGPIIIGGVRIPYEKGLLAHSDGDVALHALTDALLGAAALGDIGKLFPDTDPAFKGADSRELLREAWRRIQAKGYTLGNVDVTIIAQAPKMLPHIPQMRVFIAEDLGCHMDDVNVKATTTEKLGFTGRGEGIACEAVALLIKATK
Nature of the assay: SPR Biosensor Assay. Particulars: pH 7; 10 °C. On the procedure: An SPR assay was used to determine the binding affinities of compounds. Experiments were performed on a Biacore 3000 (Biacore, Uppsala, Sweden) instrument with CM5 research grade chips (Biacore, Uppsala, Sweden). Sensorgrams were recorded at a frequency of 2.5 Hz. EcIspF was immobilized using amine-coupling chemistry with readings between 4500 and 5500 response units were obtained. After immobilization, a 6 min injection at 5 uL min-1 of 1 M ethanolamine was used to quench excess active succinamide ester groups. SPR binding experiments with EcIspF were performed at 10 deg C in 50 mM sodium phosphate pH 7 and 2 mM MgCl2 at a flow rate of 30 uL min-1. The sensor surface was regenerated between experiments by applying the running buffer for 20 min to dissociate any ligand complex. This was followed by a further 20 min stabilization period. The 40 min total regeneration time between experiments helped to eliminate any carry-over of EcIspF bound to ligand. Each injection at a given concentration was repeated three times. Blank injections were included for each measurement series and subtracted from the data. The equilibrium (steady state) binding curves were analyzed by nonlinear regression and fit to a one-to-one Langmuir binding model. All ligands assessed by SPR were greater than 95% purity as established by high-performance liquid chromatography or combustion analysis.

In turn, `N[C@@H](Cc1c[nH]c2ccccc12)C(=O)NO` [Tryptophanhydroxamate, 13] registered a Kd of 1920 nM.

What is called Kd is a measure of binding affinity in units of concentration. Read a low Kd as a tighter complex.
